From patent US9834542B2, “LXR modulators” (BRISTOL-MYERS SQUIBB COMPANY, priority 2013, dated 2017)

Target: T1, LXRβ (Homo sapiens, UniProt P55055)
T1 construct: Co-transfection expression plasmids, comprising full-length LXRα (pCMX-h LXRα[…] or LXRβ (pCMX-hLXRβ)); expressed in transfected cells; host or cells: CV-1 African Green Monkey Kidney Cells
T1 sequence (P55055 1-460): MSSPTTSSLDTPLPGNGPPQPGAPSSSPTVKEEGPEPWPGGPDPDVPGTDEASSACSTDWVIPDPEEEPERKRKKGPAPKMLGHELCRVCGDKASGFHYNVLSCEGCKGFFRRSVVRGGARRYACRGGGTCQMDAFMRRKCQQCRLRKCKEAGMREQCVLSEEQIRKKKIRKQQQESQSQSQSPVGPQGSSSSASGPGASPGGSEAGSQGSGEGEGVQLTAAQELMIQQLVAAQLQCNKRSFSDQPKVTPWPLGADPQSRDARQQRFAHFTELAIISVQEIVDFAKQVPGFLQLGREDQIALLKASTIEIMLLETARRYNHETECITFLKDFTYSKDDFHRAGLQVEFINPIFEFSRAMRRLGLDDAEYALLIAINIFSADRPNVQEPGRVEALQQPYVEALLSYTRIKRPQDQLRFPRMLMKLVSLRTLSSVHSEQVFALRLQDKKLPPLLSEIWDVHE
T1 sequence (P19793 1-462 partner): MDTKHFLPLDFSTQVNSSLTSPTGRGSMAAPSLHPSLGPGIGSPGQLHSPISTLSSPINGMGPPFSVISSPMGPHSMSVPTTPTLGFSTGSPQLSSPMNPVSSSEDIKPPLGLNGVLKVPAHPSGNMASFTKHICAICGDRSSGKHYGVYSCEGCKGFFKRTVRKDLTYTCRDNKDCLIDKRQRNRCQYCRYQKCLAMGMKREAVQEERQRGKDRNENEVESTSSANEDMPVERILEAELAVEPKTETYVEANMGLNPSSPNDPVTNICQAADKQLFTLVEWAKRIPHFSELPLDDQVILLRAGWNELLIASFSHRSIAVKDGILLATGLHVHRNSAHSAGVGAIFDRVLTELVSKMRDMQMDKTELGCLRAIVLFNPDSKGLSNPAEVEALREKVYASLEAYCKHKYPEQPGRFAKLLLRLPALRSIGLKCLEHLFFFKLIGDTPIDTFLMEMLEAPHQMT
Assay: Co-transfection assay (LXRE luciferase reporter), LXRβ
Type: cell-based
Settings: for EC50: CV-1 cells transfected with pCMX-hLXRβ and LXREx1-Tk-Luciferase, 20 hours incubation; for Emax: LXRβ co-transfection, relative to high control 1-(2,4-difluorobenzyl)-2-oxo-6-(4-phenoxyphenyl)-4-(trifluoromethyl)-1,2-dihydropyridine-3-carbonitrile, read-out: % Efficacy
Procedure, shortened: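 Luciferase signal from an LXREx1-Tk reporter was measured after transfected CV-1 cells (full-length hLXRβ, endogenous RXR) were treated with compounds for 20 h at 37 °C, ≤0.5% DMSO. EC50 came from four-parameter fits of 11-point ½-log curves; % efficacy versus a reference agonist maximum.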

Row | SMILES | EC50 [nM] | Emax [%]
1 | Cc1nc(C(F)(F)F)cn1-c1ccc(-c2cccc(S(C)(=O)=O)c2)cc1-n1nncc1C(O)(c1ccc(Cl)cc1)C(F)(F)F (centres unmarked) [Example 11, 1-(4-chlorophenyl)-2,2,2-trifluoro-1-(1-{3′-(methylsulfonyl)-4-[2-methyl-4-(trifluoromethyl)-1H-imidazol-1-yl]biphenyl-3-yl}-1H-1,2,3-triazol-5-yl) ethanol] | 332 | 79
2 | Cc1nc(C(F)(F)F)cn1-c1ccc(-c2cccc(S(C)(=O)=O)c2)cc1-n1nncc1-c1ccc(F)cn1 [Example 77, 5-fluoro-2-(1-{3′-(methylsulfonyl)-4-[2-methyl-4-(trifluoromethyl)-1H-imidazol-1-yl]biphenyl-3-yl}-1H-1,2,3-triazol-5-yl)pyridine] | 3330 | 63
3 | Cc1nc(C(F)F)c(C)n1-c1ccc(-c2cc(F)c(CO)c(S(C)(=O)=O)c2)cc1-n1nncc1-c1ccc(OC(F)(F)F)cc1 [Example 233, (4′-(4-(difluoromethyl)-2,5-dimethyl-1H-imidazol-1-yl)-3-fluoro-5-(methylsulfonyl)-3′-(5-(4-(trifluoromethoxy)phenyl)-1H-1,2,3-triazol-1-yl)-[1,1′-biphenyl]-4-yl)methanol] | 1340 | 92
4 | Cc1nc(C(F)(F)F)cn1-c1ccc(-c2ccc(CNS(C)(=O)=O)c(S(C)(=O)=O)c2)cc1-n1nncc1-c1ccc(OC(F)(F)F)cc1 [Example 87, N-{[3-(methylsulfonyl)-4′-[2-methyl-4-(trifluoromethyl)-1H-imidazol-1-yl]-3′-(5-{4-[(trifluoromethyl)oxy]phenyl}-1H-1,2,3-triazol-1-yl)biphenyl-4-yl]methyl}methanesulfonamide] | 662 | 89
5 | Cc1nc(C(F)(F)F)cn1-c1ccc(-c2cc(F)c(CO)c(S(C)(=O)=O)c2)cc1-c1nc(CCO)oc1-c1ccc2c(c1)OC(F)(F)O2 [Example 530, 2-(5-(2,2-difluorobenzo[d][1,3]dioxol-5-yl)-4-(3′-fluoro-4′-(hydroxymethyl)-4-(2-methyl-4-(trifluoromethyl)-1H-imidazol-1-yl)-5′-(methylsulfonyl)-[1,1′-biphenyl]-3-yl)oxazol-2-yl)ethanol] | 739 | 71
6 | COCc1c(F)cc(-c2cc(F)c(-n3cc(C(F)(F)F)nc3C)c(-n3nncc3-c3ccc(OC(F)(F)F)cc3)c2)cc1S(C)(=O)=O [Example 206, 1-{3′,5-difluoro-4′-[(methyloxy)methyl]-5′-(methylsulfonyl)-4-[2-methyl-4-(trifluoromethyl)-1H-imidazol-1-yl]biphenyl-3-yl}-5-{4-[(trifluoromethyl)oxy]phenyl}-1H-1,2,3-triazole] | 88 | 95
7 | CS(=O)(=O)c1cccc(-c2ccc(-n3cnc(C(F)(F)F)c3)c(-n3nncc3-c3ccc(Cl)cc3Cl)c2)c1 [Example 19, 5-(2,4-dichlorophenyl)-1-{3′-(methylsulfonyl)-4-[4-(trifluoromethyl)-1H-imidazol-1-yl]biphenyl-3-yl}-1H-1,2,3-triazole] | 1070 | 80
8 | Cc1nc(C(F)(F)F)cn1-c1ccc(-c2cccc(S(C)(=O)=O)c2)cc1-n1nncc1C1(c2ccc(Cl)cc2)CC1 [Example 112, 5-[1-(4-chlorophenyl)cyclopropyl]-1-{3′-(methylsulfonyl)-4-[2-methyl-4-(trifluoromethyl)-1H-imidazol-1-yl]biphenyl-3-yl}-1H-1,2,3-triazole] | 973 | 53
9 | Cc1nc(C(F)(F)F)cn1-c1ccc(-c2cccc(S(C)(=O)=O)c2)cc1-n1nncc1-c1ccc(Cl)c(C#N)c1 [Example 41, 2-chloro-5-(1-{3′-(methylsulfonyl)-4-[2-methyl-4-(trifluoromethyl)-1H-imidazol-1-yl]biphenyl-3-yl}-1H-1,2,3-triazol-5-yl)benzonitrile] | 1050 | 74
10 | Cc1nc(-c2cc(-c3cc(F)c(CO)c(S(C)(=O)=O)c3)ccc2-n2cc(C(F)(F)F)nc2C)c(-c2ccc(Cl)nc2Cl)o1 [Example 567, (3′-(5-(2,6-dichloropyridin-3-yl)-2-methyloxazol-4-yl)-3-fluoro-4′-(2-methyl-4-(trifluoromethyl)-1H-imidazol-1-yl)-5-(methylsulfonyl)-[1,1′-biphenyl]-4-yl)methanol] | 111 | 93
11 | Cc1nc(-c2cc(-c3cc(F)c(CO)c(S(C)(=O)=O)c3)ccc2-n2cc(C(F)(F)F)nc2C)c(-c2ccc(OC(F)F)c(OC3CC3)c2)o1 [Example 387, (3′-(5-(3-cyclopropoxy-4-(difluoromethoxy)phenyl)-2-methyloxazol-4-yl)-3-fluoro-4′-(2-methyl-4-(trifluoromethyl)-1H-imidazol-1-yl)-5-(methylsulfonyl)biphenyl-4-yl)methanol] | 19 | 73

Continued, values first:

Row | EC50 [nM] | Emax [%] | SMILES
12 | 579 | 40 | COc1cc(OC(F)(F)F)ccc1-c1nc(C)oc1-c1cc(-c2cccc(S(C)(=O)=O)c2)ccc1-n1cc(C(F)(F)F)nc1C [Example 637, 4-(2-methoxy-4-(trifluoromethoxy)phenyl)-2-methyl-5-(4-(2-methyl-4-(trifluoromethyl)-1H-imidazol-1-yl)-3′-(methylsulfonyl)-[1,1′-biphenyl]-3-yl)oxazole]
13 | 205 | 79 | Cc1nc(C(F)(F)F)cn1-c1ccc(-c2cccc(S(C)(=O)=O)c2)cc1-c1nc(CN(C)C)oc1-c1ccc(OC(F)(F)F)cc1 [Example 538, N,N-dimethyl-1-(4-(4-(2-methyl-4-(trifluoromethyl)-1H-imidazol-1-yl)-3′-(methylsulfonyl)-[1,1′-biphenyl]-3-yl)-5-(4-(trifluoromethoxy)phenyl)oxazol-2-yl)methanamine]
14 | 42 | 112 | Cc1nc(-c2ccc(OC(F)F)cc2)c(-c2cc(-c3cc(F)c(CO)c(S(C)(=O)=O)c3)ccc2-n2cc(C(F)(F)F)nc2C)o1 [Example 624, (3′-(4-(4-(difluoromethoxy)phenyl)-2-methyloxazol-5-yl)-3-fluoro-4′-(2-methyl-4-(trifluoromethyl)-1H-imidazol-1-yl)-5-(methylsulfonyl)-[1,1′-biphenyl]-4-yl)methanol]
15 | 1250 | 37 | Cc1nc(-c2cc(-c3cccc(S(C)(=O)=O)c3)ccc2-n2cc(C(F)(F)F)nc2C)c(-c2ccc(N3CCCC3=O)cc2)o1 [Example 502, 1-(4-(2-methyl-4-(4-(2-methyl-4-(trifluoromethyl)-1H-imidazol-1-yl)-3′-(methylsulfonyl)biphenyl-3-yl)oxazol-5-yl)phenyl)pyrrolidin-2-one]
16 | 36 | 69 | Cc1nc(-c2cc(-c3ccc(C)c(S(C)(=O)=O)c3)ccc2-n2cc(C(F)(F)F)nc2C)c(-c2ccc3c(c2)OC(F)(F)O3)o1 [Example 445, 5-(2,2-difluorobenzo[d][1,3]dioxol-5-yl)-2-methyl-4-(4′-methyl-4-(2-methyl-4-(trifluoromethyl)-1H-imidazol-1-yl)-3′-(methylsulfonyl)biphenyl-3-yl)oxazole]
17 | 303 | 31 | Cc1nc(-c2ccccc2C(F)(F)F)c(-c2cc(-c3cccc(S(C)(=O)=O)c3)ccc2-n2cc(C(F)(F)F)nc2C)o1 [Example 629, 2-methyl-5-(4-(2-methyl-4-(trifluoromethyl)-1H-imidazol-1-yl)-3′-(methylsulfonyl)-[1,1′-biphenyl]-3-yl)-4-(2-(trifluoromethyl)phenyl)oxazole]
18 | 740 | 73 | Cc1nc(-c2cc(-c3cccc(C(=O)N(C)C)c3)ccc2-n2cc(C(F)(F)F)nc2C)c(-c2ccc3c(c2)OC(F)(F)O3)o1 [Example 418, 3′-(5-(2,2-difluorobenzo[d][1,3]dioxol-5-yl)-2-methyloxazol-4-yl)-N,N-dimethyl-4′-(2-methyl-4-(trifluoromethyl)-1H-imidazol-1-yl)biphenyl-3-carboxamide]
19 | 248 | 45 | Cc1nc(-c2cc(-c3cccc(S(C)(=O)=O)c3)ccc2-n2cc(C#N)nc2C)c(-c2ccc3c(c2)OC(F)(F)O3)o1 [Example 371, 1-(3-(5-(2,2-difluorobenzo[d][1,3]dioxol-5-yl)-2-methyloxazol-4-yl)-3′-(methylsulfonyl)biphenyl-4-yl)-2-methyl-1H-imidazole-4-carbonitrile]
